Results: EP2476670A1, “Stable solid salts of ambrisentan” (Zentiva, K.S., priority 2011, dated 2012)
Structures can show the parent of a compound that is named as a salt. Where two headings read alike, the source gives them in different places.

Key:
[1] = Solubility of ambrisentan solid forms in water at 25 °C; type: physicochemical; settings: approximate values
Method: Solubility of all the salts are considerably higher compared to solubility of ambrisentan in the salt free form. Table. 1 Solubility of ambrisentan solid forms in water at 25 °C

[2] = pKa of the ionisable groups of ambrisentan; type: physicochemical

Solubility [1]	Solubility ([1]; sodium salt) [µg/mL]	SMILES	further results
∼ 0.05 mg/ml	–	COC(c1ccccc1)(c1ccccc1)[C@H](Oc1nc(C)cc(C)n1)C(=O)O [Ambrisentan (Form R), (S)-2-(4,6-dimethylpyrimidin-2-yloxy)-3-methoxy-3,3-diphenylpropanoic acid]	pKa ([2]; read-out: pKa of nitrogen in pyrimidine ring): 2.98 ± 0.3; pKa ([2]; read-out: pKa of the carboxylic group): 0.93 ± 0.1
–	–	COC(c1ccccc1)(c1ccccc1)[C@H](Oc1nc(C)cc(C)n1)C(=O)O [Ambrisentan phosphate salt, ambrisentan phosphate salt]	Solubility ([1]; phosphate salt): ∼ 0.1 mg/ml
–	>10000	COC(c1ccccc1)(c1ccccc1)[C@H](Oc1nc(C)cc(C)n1)C(=O)O [Ambrisentan sodium salt (amorphous), ambrisentan sodium salt]	–
–	>5000	COC(c1ccccc1)(c1ccccc1)[C@H](Oc1nc(C)cc(C)n1)C(=O)O [Ambrisentan sodium salt (crystalline), ambrisentan sodium salt]	–
>6000 µg/mL	–	COC(c1ccccc1)(c1ccccc1)[C@H](Oc1nc(C)cc(C)n1)C(=O)O [Ambrisentan tert-butylammonium salt, ambrisentan tert-butylammonium salt]	–
